The values below come from US20200260700A1, “Transgenic Insect and Use of Same in Methods for Testing Natural or Synthetic Substances” (Robert Bosch Gesellschaft für Medizinische Forschung mbH, priority 2017, published 2020).

The experiment addresses human SLC22A1/OCT1 protein (Homo sapiens, UniProt O15245). The note with it: ethidium bromide and cimetidine simultaneously injected into ventral side of Drosophila melanogaster embryos expressing OCT1/SLC22A1 reference sequence in salivary glands (GAL4/UAS); confocal laser scanning microscopy.

Sequence of human SLC22A1/OCT1 protein (O15245 whole entry, the tested form may be a part): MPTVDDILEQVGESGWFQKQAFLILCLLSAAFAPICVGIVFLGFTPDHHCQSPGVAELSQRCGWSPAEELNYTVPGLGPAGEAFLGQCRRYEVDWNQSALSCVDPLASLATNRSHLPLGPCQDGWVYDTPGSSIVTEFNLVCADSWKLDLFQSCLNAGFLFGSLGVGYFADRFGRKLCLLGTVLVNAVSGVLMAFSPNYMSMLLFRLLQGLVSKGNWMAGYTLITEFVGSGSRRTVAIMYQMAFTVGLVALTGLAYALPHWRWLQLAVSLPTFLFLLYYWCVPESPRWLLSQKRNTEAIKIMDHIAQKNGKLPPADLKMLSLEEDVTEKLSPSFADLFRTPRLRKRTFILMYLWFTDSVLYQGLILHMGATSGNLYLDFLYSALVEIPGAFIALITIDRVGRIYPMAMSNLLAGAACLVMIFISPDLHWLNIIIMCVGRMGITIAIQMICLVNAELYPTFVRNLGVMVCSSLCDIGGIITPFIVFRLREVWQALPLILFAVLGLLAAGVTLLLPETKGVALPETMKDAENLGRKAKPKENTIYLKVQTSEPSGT
Experimental: The salivary glands are moreover characterized by the tissue-specific expression of GFP. These living embryos were injected with 0.5 μM ethidium bromide. The accumulation of ethidium bromide in the salivary glands was visualized by confocal laser scanning microscopy.
The salivary glands are moreover characterized by the tissue-specific expression of GFP. Ethidium bromide and cimetidine were simultaneously injected into the ventral side of the embryos.

On to `CN/C(=N/CCSCc1nc[nH]c1C)NC#N` [cimetidine], for which the “inhibition of the uptake of ethidium bromide” value is “concentration-dependent”.
